According to publication PMC8705394, “Acquired Drug Resistance Enhances Imidazoquinoline Efflux by P-Glycoprotein” (Pharmaceuticals, 2021):

Legend:
[1] = target: T1, P-glycoprotein 1 (P-gp, hMDR1) (Homo sapiens, UniProt P08183); assay: vanadate-sensitive ATPase activation in P-gp membrane vesicles (PREDEASY kit); supported by Rh123 competition in MDR cells
T1 construct: gene ABCB1

[2] = target: T1, P-glycoprotein 1 (P-gp, hMDR1); assay: biochemical

T1 sequence (P08183 whole entry): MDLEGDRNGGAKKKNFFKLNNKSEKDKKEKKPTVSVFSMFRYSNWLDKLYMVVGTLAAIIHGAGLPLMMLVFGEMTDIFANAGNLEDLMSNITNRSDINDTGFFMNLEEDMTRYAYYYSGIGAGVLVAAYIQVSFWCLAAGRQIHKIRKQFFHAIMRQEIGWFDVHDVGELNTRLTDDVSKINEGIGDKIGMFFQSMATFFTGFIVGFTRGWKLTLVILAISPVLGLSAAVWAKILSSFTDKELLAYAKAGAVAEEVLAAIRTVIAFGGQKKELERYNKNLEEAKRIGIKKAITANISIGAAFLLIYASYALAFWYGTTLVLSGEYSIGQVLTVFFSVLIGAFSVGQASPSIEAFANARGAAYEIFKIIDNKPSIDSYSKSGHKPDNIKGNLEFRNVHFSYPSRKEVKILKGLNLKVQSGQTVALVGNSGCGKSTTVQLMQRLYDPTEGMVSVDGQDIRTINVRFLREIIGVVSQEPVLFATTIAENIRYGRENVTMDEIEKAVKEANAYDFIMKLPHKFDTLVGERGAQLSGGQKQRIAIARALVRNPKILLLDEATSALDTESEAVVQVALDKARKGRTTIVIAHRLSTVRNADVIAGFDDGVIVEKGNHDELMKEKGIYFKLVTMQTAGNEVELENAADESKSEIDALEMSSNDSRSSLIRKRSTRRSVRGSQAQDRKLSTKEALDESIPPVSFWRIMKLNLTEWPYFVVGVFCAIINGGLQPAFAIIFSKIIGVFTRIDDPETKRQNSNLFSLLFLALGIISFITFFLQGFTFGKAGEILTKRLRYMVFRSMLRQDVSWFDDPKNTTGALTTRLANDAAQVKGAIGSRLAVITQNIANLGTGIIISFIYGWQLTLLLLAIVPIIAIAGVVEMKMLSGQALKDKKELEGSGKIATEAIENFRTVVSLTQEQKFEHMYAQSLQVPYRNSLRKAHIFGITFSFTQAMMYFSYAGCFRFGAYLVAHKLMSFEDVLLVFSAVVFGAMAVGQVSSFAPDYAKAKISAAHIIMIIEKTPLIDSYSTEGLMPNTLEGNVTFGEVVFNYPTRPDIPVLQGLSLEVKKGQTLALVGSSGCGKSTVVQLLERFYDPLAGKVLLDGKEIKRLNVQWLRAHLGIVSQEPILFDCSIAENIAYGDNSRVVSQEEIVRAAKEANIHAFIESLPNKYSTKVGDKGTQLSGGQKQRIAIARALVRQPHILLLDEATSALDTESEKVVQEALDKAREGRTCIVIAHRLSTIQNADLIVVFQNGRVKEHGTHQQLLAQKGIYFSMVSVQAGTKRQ

CC(C)Cn1cnc2c(N)nc3ccccc3c21 [IMQ, Imiquimod]
Kd [1]: 7.66 µM

CCOCc1nc2c(N)nc3ccccc3c2n1CC(C)(C)O [RSQ, Resiquimod]
Kd [2]: 24.4 µM
